According to patent publication US11168093B2, “Thienopyridine inhibitors of RIPK2” (Celgene Corporation, priority 2018, dated 2021):

These molecules were tested against RIPK2 enzyme (Homo sapiens (Human), UniProt O43353) (assay: RIPK2 inhibition assay, TR-FRET LanthaScreen Tracer 199 screening assay). Conditions: 5 nM RIPK2 enzyme, Tracer 199 at 50 nM, Eu-anti-His Antibody at 2 nM, 1 hour incubation.
RIPK2 enzyme, sequence (O43353 whole entry): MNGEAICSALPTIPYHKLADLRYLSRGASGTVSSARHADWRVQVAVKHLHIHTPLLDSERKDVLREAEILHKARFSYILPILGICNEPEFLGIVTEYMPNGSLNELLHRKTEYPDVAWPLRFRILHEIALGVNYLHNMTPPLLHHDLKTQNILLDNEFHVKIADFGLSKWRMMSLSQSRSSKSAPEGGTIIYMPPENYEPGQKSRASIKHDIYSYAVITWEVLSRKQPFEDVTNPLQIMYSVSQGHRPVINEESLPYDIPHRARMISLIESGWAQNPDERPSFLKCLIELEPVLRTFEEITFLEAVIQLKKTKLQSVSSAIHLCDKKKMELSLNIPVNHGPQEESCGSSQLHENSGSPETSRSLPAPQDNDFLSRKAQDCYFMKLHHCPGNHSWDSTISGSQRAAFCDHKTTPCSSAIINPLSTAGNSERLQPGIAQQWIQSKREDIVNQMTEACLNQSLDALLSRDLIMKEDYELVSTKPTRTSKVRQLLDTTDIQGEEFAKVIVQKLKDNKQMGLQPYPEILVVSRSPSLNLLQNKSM
Type: binding
Method: All data was collected using a standard TR-FRET screening assay: LanthaScreen Tracer 199 at 50 nM, Eu-anti-His Antibody at 2 nM, 5 nM RIPK2 enzyme, and 1× Kinase Reaction Buffer. There was a 1 hour incubation prior to read. TR-FRET signal of the interaction (340Ex/665Em/615Em) was read at room temperature with standard setting. Background was subtracted of wells containing no enzyme. Percent inhibition was based on uninhibited controls log (inhibitor) vs. response. Variable slope equation was used with no constraints: Log Y=Bottom+(Top−Bottom)/(1+10^((Log IC50−X)*Hill Slope)).
The compound numbers correspond to the compound numbers above.
C[C@H]1[C@@H](c2cc3c(Nc4c(F)cc5scnc5c4F)ccnc3s2)CCCN1C [Example 71b, N-(2-((2S,3S)-1,2-dimethylpiperidin-3-yl)thieno[2,3-b]pyridin-4-yl)-4,6-difluorobenzo[d]thiazol-5-amine] showed an IC50 of no more than 10 nM. In the case of CCN1CCC(c2cc3c(Nc4ccc5scnc5c4)ccnc3s2)C1C (centres unmarked) [Example 30, N-(2-(1-ethyl-2-methylpyrrolidin-3-yl)thieno[2,3-b]pyridin-4-yl)benzo[d]thiazol-5-amine], the IC50 is reported as no more than 10 nM. With CCN1CCC[C@H](c2cc3c(Nc4ccc5scnc5c4F)ccnc3s2)[C@H]1C [Example 62, N-(2-((2R,3S)-1-ethyl-2-methylpiperidin-3-yl)thieno[2,3-b]pyridin-4-yl)-4-fluorobenzo[d]thiazol-5-amine] the IC50 was no more than 10 nM. Molecule CC1(C)C(c2cc3c(Nc4c(F)cc5scnc5c4F)ccnc3s2)CCN1CCO (centres unmarked) [Example 98, 2-(3-(4-((4,6-difluorobenzo[d]thiazol-5-yl)amino)thieno[2,3-b]pyridin-2-yl)-2,2-dimethylpyrrolidin-1-yl)ethan-1-ol] has an IC50 of no more than 10 nM. In the case of CC1C(c2cc3c(Nc4ccc5scnc5c4F)c(F)cnc3s2)CCCN1C (single isomer, unassigned) [Example 125b, N-(2-(1,2-dimethylpiperidin-3-yl)-5-fluorothieno[2,3-b]pyridin-4-yl)-4-fluorobenzo[d]thiazol-5-amine], the IC50 is reported as 10 to 20 nM. CN1CCC(c2cc3c(Nc4ccc5scnc5c4)ccnc3s2)C1(C)C (centres unmarked) [Example 35, N-(2-(1,2,2-trimethylpyrrolidin-3-yl)thieno[2,3-b]pyridin-4-yl)benzo[d]thiazol-5-amine] showed an IC50 of 10 to 20 nM. For CC1C(c2cc3c(Nc4ccc5scnc5c4)c(F)cnc3s2)CCCN1C (single isomer, unassigned) [Example 120c, N-(2-(1,2-dimethylpiperidin-3-yl)-5-fluorothieno[2,3-b]pyridin-4-yl)benzo[d]-thiazol-5-amine], the IC50 was no more than 10 nM. Molecule CCC1C(c2cc3c(Nc4ccc5scnc5c4)ccnc3s2)CCCN1C (centres unmarked) [Example 23a, N-(2-(2-ethyl-1-methylpiperidin-3-yl)thieno[2,3-b]pyridin-4-yl)benzo[d]thiazol-5-amine] has an IC50 of no more than 10 nM. CC1NCCCCC1c1cc2c(Nc3c(F)cc4scnc4c3F)ccnc2s1 (centres unmarked) [Example 118b, 4,6-difluoro-N-(2-(2-methylazepan-3-yl)thieno[2,3-b]pyridin-4-yl)benzo[d]thiazol-5-amine] showed an IC50 of no more than 10 nM. For CC1NCCCC1c1cc2c(Nc3ccc4scnc4c3)c(F)cnc2s1 (single isomer, unassigned) [Example 119d, N-(5-fluoro-2-(2-methylpiperidin-3-yl)thieno[2,3-b]pyridin-4-yl)benzo[d]thiazol-5-amine], the IC50 was no less than 50 nM. In the case of CC1(C)C(c2cc3c(Nc4ccc5scnc5c4F)ccnc3s2)CCN1CCO (centres unmarked) [Example 92, 2-(3-(4-((4-fluorobenzo[d]thiazol-5-yl)amino)thieno[2,3-b]pyridin-2-yl)-2,2-dimethylpyrrolidin-1-yl)ethan-1-ol], the IC50 is reported as no more than 10 nM. For CC1C(c2cc3c(Nc4cc5ncsc5cc4F)ccnc3s2)CCN1CCO (centres unmarked) [Example 77, 2-(3-(4-((6-fluorobenzo[d]thiazol-5-yl)amino)thieno[2,3-b]pyridin-2-yl)-2-methylpyrrolidin-1-yl)ethan-1-ol], the IC50 was 10 to 20 nM. CCN1CCC=C(c2cc3c(Nc4c(F)cc5scnc5c4F)ccnc3s2)[C@@H]1C [Example 72b, (S)—N-(2-(1-ethyl-2-methyl-1,2,5,6-tetrahydropyridin-3-yl)thieno[2,3-b]pyridin-4-yl)-4,6-difluorobenzo[d]thiazol-5-amine] showed an IC50 of no more than 10 nM. CC1C(c2cc3c(Nc4ccc5scnc5c4F)ccnc3s2)CCN1CCO (centres unmarked) [Example 89, 2-(3-(4-((4-fluorobenzo[d]thiazol-5-yl)amino)thieno[2,3-b]pyridin-2-yl)-2-methylpyrrolidin-1-yl)ethan-1-ol] gave an IC50 of no more than 10 nM. For CC1NCCCC1c1cc2c(Nc3ccc4scnc4c3F)c(F)cnc2s1 (single isomer, unassigned) [Example 124a, 4-fluoro-N-(5-fluoro-2-(2-methylpiperidin-3-yl)thieno[2,3-b]pyridin-4-yl)benzo[d]thiazol-5-amine], the IC50 was no less than 50 nM. In the case of CC1NCCCCC1c1cc2c(Nc3ccc4scnc4c3)ccnc2s1 (centres unmarked) [Example 115a, N-(2-(2-methylazepan-3-yl)thieno[2,3-b]pyridin-4-yl)benzo[d]thiazol-5-amine], the IC50 is reported as no more than 10 nM. In the case of CCN1CCC=C(c2cc3c(Nc4cc5ncsc5cc4F)ccnc3s2)[C@@H]1C [Example 52b, N-(2-(1-ethyl-2-methyl-1,2,5,6-tetrahydropyridin-3-yl)thieno[2,3-b]pyridin-4-yl)-6-fluorobenzo[d]thiazol-5-amine], the IC50 is reported as 10 to 20 nM. CC1(C)NCCC1c1cc2c(Nc3ccc4scnc4c3)ccnc2s1 (centres unmarked) [Example 33, N-(2-(2,2-dimethylpyrrolidin-3-yl)thieno[2,3-b]pyridin-4-yl)benzo[d]thiazol-5-amine] was tested, and the IC50 was no more than 10 nM. CC1C(c2cc3c(Nc4ccc5scnc5c4)ccnc3s2)CCCN1CCF (centres unmarked) [Example 14, N-(2-(1-(2-fluoroethyl)-2-methylpiperidin-3-yl)thieno[2,3-b]pyridin-4-yl)benzo[d]thiazol-5-amine] was tested, and the IC50 was no more than 10 nM. Work on C[C@@H]1NCCC=C1c1cc2c(Nc3cc4ncsc4cc3F)ccnc2s1 [Example 49b, 6-fluoro-N-(2-(2-methyl-1,2,5,6-tetrahydropyridin-3-yl)thieno[2,3-b]pyridin-4-yl)benzo[d]thiazol-5-amine] yielded an IC50 of no more than 10 nM. Work on CCN1CC=C(c2cc3c(Nc4ccc5scnc5c4)ccnc3s2)C12CCOC2 (centres unmarked) [Example 44, N-(2-(1-ethyl-7-oxa-1-azaspiro[4.4]non-3-en-4-yl)thieno[2,3-b]pyridin-4-yl)benzo[d]thiazol-5-amine] yielded an IC50 of no more than 10 nM. Fc1cc2scnc2cc1Nc1ccnc2sc(C3CCNC34CCOCC4)cc12 (centres unmarked) [Example 84, N-(2-(8-oxa-1-azaspiro[4.5]decan-4-yl)thieno[2,3-b]pyridin-4-yl)-6-fluorobenzo[d]thiazol-5-amine] gave an IC50 of no less than 50 nM. COCCN1CCC=C(c2cc3c(Nc4ccc5scnc5c4)ccnc3s2)[C@@H]1C [Example 12b, N-(2-(1-(2-methoxyethyl)-2-methyl-1,2,5,6-tetrahydropyridin-3-yl)thieno[2,3-b]pyridin-4-yl)benzo[d]thiazol-5-amine] was tested, and the IC50 was no more than 10 nM. Molecule COCCN1CCC=C(c2cc3c(Nc4ccc5scnc5c4)ccnc3s2)[C@H]1C [Example 12a, N-(2-(1-(2-methoxyethyl)-2-methyl-1,2,5,6-tetrahydropyridin-3-yl)thieno[2,3-b]pyridin-4-yl)benzo[d]thiazol-5-amine] has an IC50 of no more than 10 nM. CCN1CCC[C@@H](c2cc3c(Nc4ccc5scnc5c4F)ccnc3s2)[C@@H]1C [Example 63, N-(2-((2S,3R)-1-ethyl-2-methylpiperidin-3-yl)thieno[2,3-b]pyridin-4-yl)-4-fluorobenzo[d]thiazol-5-amine] gave an IC50 of no more than 10 nM. For CCN1CCC(c2cc3c(Nc4ccc5scnc5c4F)ccnc3s2)C1C (centres unmarked) [Example 88, N-(2-(1-ethyl-2-methylpyrrolidin-3-yl)thieno[2,3-b]pyridin-4-yl)-4-fluorobenzo[d]thiazol-5-amine], the IC50 was no more than 10 nM. With COCC(=O)N1CCC=C(c2cc3c(Nc4ccc5scnc5c4)ccnc3s2)C1C (centres unmarked) [Example 11, 1-(5-(4-(benzo[d]thiazol-5-ylamino)thieno[2,3-b]pyridin-2-yl)-6-methyl-3,6-dihydro-pyridin-1(2H)-yl)-2-methoxyethan-1-one] the IC50 was no more than 10 nM. CCN1CCC(c2cc3c(Nc4c(F)cc5scnc5c4F)ccnc3s2)C1(C)C (centres unmarked) [Example 97, N-(2-(1-ethyl-2,2-dimethylpyrrolidin-3-yl)thieno[2,3-b]pyridin-4-yl)-4,6-difluorobenzo[d]thiazol-5-amine] gave an IC50 of no more than 10 nM. CC1C(c2cc3c(Nc4ccc5scnc5c4)ccnc3s2)=CCCN1C (centres unmarked) [Example 2, N-(2-(1,2-dimethyl-1,2,5,6-tetrahydropyridin-3-yl)thieno[2,3-b]pyridin-4-yl)benzo[d]thiazol-5-amine] gave an IC50 of no more than 10 nM. Molecule Fc1cc2scnc2c(F)c1Nc1ccnc2sc(C3CCNC34CCOC4)cc12 (centres unmarked) [Example 99, N-(2-(7-oxa-1-azaspiro[4.4]nonan-4-yl)thieno[2,3-b]pyridin-4-yl)-4,6-difluorobenzo[d]thiazol-5-amine] has an IC50 of 10 to 20 nM. With C[C@H]1[C@@H](c2cc3c(Nc4ccc5scnc5c4F)ccnc3s2)CCCN1C [Example 61, N-(2-((2S,3S)-1,2-dimethylpiperidin-3-yl)thieno[2,3-b]pyridin-4-yl)-4-fluorobenzo[d]thiazol-5-amine] the IC50 was no more than 10 nM. C[C@@H]1NCCC[C@H]1c1cc2c(Nc3c(F)cc4scnc4c3F)ccnc2s1 [Example 68a, 4,6-difluoro-N-(2-((2S,3R)-2-methylpiperidin-3-yl)thieno[2,3-b]pyridin-4-yl)benzo[d]thiazol-5-amine] was tested, and the IC50 was 10 to 20 nM. CCN1CCC(c2cc3c(Nc4cc5ncsc5cc4F)ccnc3s2)C1(C)C (centres unmarked) [Example 79, N-(2-(1-ethyl-2,2-dimethylpyrrolidin-3-yl)thieno[2,3-b]pyridin-4-yl)-6-fluorobenzo[d]thiazol-5-amine] was tested, and the IC50 was 20 to 50 nM. Molecule CC1NCCC=C1c1cc2c(Nc3ccc4scnc4c3)ccnc2s1 (centres unmarked) [Example 1, N-(2-(2-methyl-1,2,5,6-tetrahydropyridin-3-yl)thieno[2,3-b]pyridin-4-yl)benzo[d]thiazol-5-amine] has an IC50 of no more than 10 nM. CN1CCC(c2cc3c(Nc4cc5ncsc5cc4F)ccnc3s2)C12CCOC2 (centres unmarked) [Example 82, 6-fluoro-N-(2-(1-methyl-7-oxa-1-azaspiro[4.4]nonan-4-yl)thieno[2,3-b]pyridin-4-yl)benzo[d]thiazol-5-amine] was tested, and the IC50 was no less than 50 nM.
